Test [1] deals with LACK-sensitised and -challenged BALB/c ByJ mice. Kind of test: LACK-induced allergic asthma model, other routes of administration. It is filed as in vivo. On the procedure:
43 females BALB/c ByJ mice 6-week old were purchased from the Centre d'Elevage Janvier (CERJ, Le Genest-St-Isle, France). All the mice were sensitised by 2 i.p. injections of 10 μg LACK protein precipitated in 2 mg of Alum (PerBio Science France SAS, Brebières, France) at days 1 and 8 (Julia et al., 2002).
OM-197-MP-AC was given from day 0 to day 12 as described below. All the mice were challenged from day 16 to day 20 with either a solution of LACK (0.15%) or with PBS as indicated below.
Experimental groups were the following: • Group A: untreated, LACK-sensitised and PBS-challenged mice (3 mice) • Group B: untreated LACK-sensitised and -challenged mice (7 mice) • Group C: i.p. OM-197-MP-AC-treated, LACK-sensitised and -challenged mice (5 mice) • Group D: i.g. OM-197-MP-AC-treated, LACK-sensitised and -challenged mice (7 mice) • Group E: s.c. OM-197-MP-AC-treated, LACK-sensitised and -challenged mice (7 mice). • Group F: i.n. OM-197-MP-AC-treated, LACK-sensitised and -challenged mice (7 mice) • Group G: aerosols OM-197-MP-AC-treated, LACK-sensitised and -challenged mice (7 mice)
Mice of groups C, D, E, and G were treated on days: 0, 2, 3, 4, 7, 9, 10, 11, whereas mice of group F (intranasal route) were only treated on days 0, 4, 7, and 11.
Mice of groups C and E were treated i.p. and s.c. respectively with 1 mg/Kg (20 μg per mouse) of OM-197-MP-AC.
Mice of group D were treated intragastrically with 50 mg/Kg (1 mg per mouse) of OM-197-MP-AC.
Mice of group F were treated i.n. with 20[…]μg of OM-197-MP-AC in a volume of 20 μl (OM-197-MP-AC at 2 mg/ml, 10[…]μl/nostril.)
Mice of group G received aerosols of a solution of OM-197-MP-AC at 0.2% (2 mg/ml) for 10 minutes.
All the mice were bled by heart puncture 2 days after the last aerosol. Total IgE were quantified by ELISA using rat EM-95 anti-IgE mAbs as coating antibody and rat anti-IgE mAbs coupled to biotin as second antibody as described elsewhere (Julia et al., 2002).
Individual mice were bled and a canula was inserted into their trachea. Lungs were washed 3 times with 1 ml of warmed PBS. Cells were washed with PBS, resuspended in 300 μl, and counted using a Burker-Türk chamber. For differential BAL cell counts, cytospin preparations were made and stained with Wright/Giemsa.

The test system of a further test is human CD4+ T cells. Nature of the test: Cytokine production and proliferation of naïve CD4+ T cells stimulated with anti-CD3 and anti-CD28. The test is classed as cell-based. As to conditions: 0.02-20 μg/ml. On the procedure: A series of four compounds of the present invention (OM-197-MP-AC, OM-197-MC-HD, OM-294-BA-MP, OM-197-MP-HD) were tested directly as summarized below:
Naïve CD4^+ T cells were magnetically sorted from healthy blood donor (buffy coat). The cells were stimulated in the presence or not of graded doses of triacyl derivatives (0.02; 0.2; 2 and 20 μg/ml) using plate-bound anti-CD3 (5 μg/ml) and soluble anti-CD28 (1 μg/ml). After 6 days, cytokine levels (IFN-γ and IL-13) were tested in the culture supernatants using ELISA.
FIGS. 3A-3D: Effect of increasing doses of the four compounds tested (OM-197-MP-AC, n=5; OM-197-MC-HD, n=5; OM-294-BA-MP, n=7; OM-197-MP-HD, n=3) on IFN-γ and IL-13 production of human CD4^+ T cells following a polyclonal activation. Results are expressed as the median (±p25/p75) of n independent experiments and show the percentage (%) proliferation or cytokine production of treated cells versus untreated cells (considered as 100%, see dotted line). The statistical analysis was performed using a nonparametric unpaired Mann-Whitney t test (2-tailed).

In the case of `CCCCCCCCCCCC(=O)O[C@H](CCCCCCCCCCC)CC(=O)N[C@@H](CCOP(=O)(O)O)C(=O)NCCC[C@H](COC(=O)CCCCCN)NC(=O)C[C@H](O)CCCCCCCCCCC` [OM-197-MP-AC, (3S, 9R)-3-[(R)-3-dodecanoyloxytetradecanoylamino]-4-oxo-5-aza-9-[(R)-3-hydroxytetradecanoylamino]-decan-1, 10-diol 1-dihydrogenophosphate 10-(6-aminohexanoate)], the “Eosinophils in BAL” value in test [1] (aerosols of 0.2% solution, 10 minutes) is listed as “same tendency as i.n. treated animals”. The “BAL cell contents versus untreated mice” value in test [1] (i.g. 50 mg/Kg, unformulated) is “did not yield differences”. Moreover, in test [1] (i.n. 20 μg per mouse), the “Eosinophil frequencies and numbers in BAL” value was “reduced by half”; the “Total serum IgE” value is listed as “reduced titers”. Moreover, in test [1] (i.p. 1 mg/Kg), the “Eosinophils in BAL” value is “both reduced percentage and reduced numbers”; the “Total IgE” value is “reduced amounts”. Moreover, the “BAL cell contents versus untreated mice” value in test [1] (s.c. 1 mg/Kg) was “did not yield differences”. Moreover, the T cell proliferation entry in the test on human CD4+ T cells is given as “unaffected”. In the test on human CD4+ T cells (6 days, ELISA), the “IFN-γ production by CD4+ T cells” value is recorded as “unaffected” and the “IL-13 production by CD4+ T cells” value is reported as “reduced”.

Values taken from patent publication US8618080B2, “Immunomodulatory compounds and treatment of diseases related to an overproduction of inflammatory cytokines” (OM Pharma, priority 2006, dated 2013).
